Assay results as given in US20120184583A1, “MODULATORS OF ATP-BINDING CASSETTE TRANSPORTERS” (VERTEX PHARMACEUTICALS INCORPORATED, priority 2003, published 2012).

Legend:
[1] = molecular target: T1, ΔF508-CFTR stably expressed in NIH3T3 cells (Homo sapiens, UniProt P13569, DEL508-508); assay: Membrane potential optical (FRET/VIPR) assay for ΔF508-CFTR potentiation; assay type: cell-based; details: for Emax: NIH3T3, read-out: % Efficacy (relative modulating efficacy in comparison with genistein), normalized to peak genistein response
T1 construct: expressed in transfected cells
Text: Membrane potential optical methods for assaying ΔF508-CFTR potentiation properties of compounds.
These voltage sensitive assays are based on the change in fluorescence resonant energy transfer (FRET) between the membrane-soluble, voltage-sensitive dye, DiSBAC2(3), and a fluorescent phospholipid, CC2-DMPE, which is attached to the outer leaflet of the plasma membrane and acts as a FRET donor. Changes in membrane potential (Vm) cause the negatively charged DiSBAC2(3) to redistribute across the plasma membrane and the amount of energy transfer from CC2-DMPE changes accordingly. The changes in fluorescence emission were monitored using VIPR™ II, which is an integrated liquid handler and fluorescent detector designed to conduct cell-based screens in 96- or 384-well microtiter plates.
To identify potentiators of ΔF508-CFTR, a double-addition HTS assay format was developed (FIG. 1A). During the first addition, a Cl^−-free medium with or without test compound was added to each well. After 22 sec, a second addition of Cl^−-free medium containing 2-10 μM forskolin was added to activate ΔF508-CFTR. The extracellular Cl^− concentration following both additions was 28 mM, which promoted Cl^− efflux in response to ΔF508-CFTR activation and the resulting membrane depolarization was optically monitored using the FRET-based voltage-sensor dyes. The double-addition format has several advantages. First, it enables separation of compounds that act independently of forskolin-activated ΔF508-CFTR. Second, it allows compounds that act from the cytoplasmic surface of the channel to cross the plasma membrane and take effect. Lastly, fluorescent changes that arise from test compound addition alone can be identified.
High-throughput assay format for identifying potentiators of ΔF508-CFTR stably expressed in NIH3T3 cells.
FIG. 1A: Double-addition assay format in which Cl^−-free medium was added with or without the test compound prior to forskolin addition. The cells were incubated at 27° C. for 16-24 hr prior to use.
• Bath Solution #1: (in mM)NaCl 160, KCl 4.5, CaCl2 2, MgCl2 1, HEPES 10, pH 7.4 with NaOH. • Chloride-free bath solution: Chloride salts in Bath Solution #1 are substituted with gluconate salts. • CC2-DMPE: Prepared as a 10 mM stock solution in DMSO and stored at −20° C. • DiSBAC2(3): Prepared as a 10 mM stock in DMSO and stored at −20° C.
NIH3T3 mouse fibroblasts stably expressing ΔF508-CFTR are used for optical measurements of membrane potential. The cells are maintained at 37° C. in 5% CO2 and 90% humidity in Dulbecco's modified Eagle's medium supplemented with 2 mM glutamine, 10% fetal bovine serum, 1×NEAA, β-ME, 1×pen/strep, and 25 mM HEPES in 175 cm^2 culture flasks. For all optical assays, the cells were seeded at 30,000/well in 384-well matrigel-coated plates and cultured for 2 hrs at 37° C. before culturing at 27° C. for 24 hrs.

[2] = molecular target: T2, ΔF508-CFTR expressed in FRT epithelial cells (Homo sapiens, UniProt P13569, DEL508-508); assay: Ussing chamber assay, short-circuit current in FRT epithelia; assay type: cell-based
T2 construct: expressed in transfected cells; host or cells: Fisher rat epithelial (FRT) cells, vector-infected
T2 sequence (P13569 with tags, fused parts or gaps DEL508-508): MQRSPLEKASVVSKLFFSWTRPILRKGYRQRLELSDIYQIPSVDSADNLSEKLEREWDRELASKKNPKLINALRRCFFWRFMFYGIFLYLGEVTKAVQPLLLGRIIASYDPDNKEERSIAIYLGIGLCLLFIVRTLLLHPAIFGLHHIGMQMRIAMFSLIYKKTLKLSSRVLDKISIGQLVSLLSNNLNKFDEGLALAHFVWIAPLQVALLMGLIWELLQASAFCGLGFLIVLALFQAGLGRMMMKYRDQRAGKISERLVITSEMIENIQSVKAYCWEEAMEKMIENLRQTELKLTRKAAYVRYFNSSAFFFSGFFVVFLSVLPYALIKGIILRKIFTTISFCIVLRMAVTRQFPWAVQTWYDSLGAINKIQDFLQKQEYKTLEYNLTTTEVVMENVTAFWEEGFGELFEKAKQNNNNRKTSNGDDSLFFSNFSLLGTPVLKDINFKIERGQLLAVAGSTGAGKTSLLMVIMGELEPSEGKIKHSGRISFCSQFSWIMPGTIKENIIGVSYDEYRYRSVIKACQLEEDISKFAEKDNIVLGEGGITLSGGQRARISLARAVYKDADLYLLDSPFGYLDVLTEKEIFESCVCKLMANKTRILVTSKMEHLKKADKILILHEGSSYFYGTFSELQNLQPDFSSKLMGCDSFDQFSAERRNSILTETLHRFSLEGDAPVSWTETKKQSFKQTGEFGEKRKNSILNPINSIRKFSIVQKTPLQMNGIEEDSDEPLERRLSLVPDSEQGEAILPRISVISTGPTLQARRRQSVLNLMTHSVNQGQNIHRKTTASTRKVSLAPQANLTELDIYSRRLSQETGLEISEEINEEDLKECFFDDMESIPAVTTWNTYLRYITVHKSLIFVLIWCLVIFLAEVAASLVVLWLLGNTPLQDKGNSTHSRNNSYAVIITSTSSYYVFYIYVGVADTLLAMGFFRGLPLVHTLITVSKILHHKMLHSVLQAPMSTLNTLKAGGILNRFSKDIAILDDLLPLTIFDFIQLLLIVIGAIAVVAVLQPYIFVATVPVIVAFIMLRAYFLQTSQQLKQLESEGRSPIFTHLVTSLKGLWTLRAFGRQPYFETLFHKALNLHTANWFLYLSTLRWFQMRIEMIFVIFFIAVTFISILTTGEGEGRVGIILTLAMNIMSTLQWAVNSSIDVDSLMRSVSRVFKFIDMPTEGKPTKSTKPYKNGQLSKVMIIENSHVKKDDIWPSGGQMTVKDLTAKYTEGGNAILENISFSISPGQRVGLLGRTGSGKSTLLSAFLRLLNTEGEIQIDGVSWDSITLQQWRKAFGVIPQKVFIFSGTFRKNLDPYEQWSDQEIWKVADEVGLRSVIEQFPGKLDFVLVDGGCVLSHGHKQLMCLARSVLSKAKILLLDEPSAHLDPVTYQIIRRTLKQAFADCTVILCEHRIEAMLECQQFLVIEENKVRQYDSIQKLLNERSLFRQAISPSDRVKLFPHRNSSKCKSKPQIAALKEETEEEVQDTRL
Experimental: FRT^ΔF508-CFTR epithelial cells grown on Costar Snapwell cell culture inserts were mounted in an Ussing chamber (Physiologic Instruments, Inc., San Diego, Calif.), and the monolayers were continuously short-circuited using a Voltage-clamp System (Department of Bioengineering, University of Iowa, Iowa, and, Physiologic Instruments, Inc., San Diego, Calif.). Transepithelial resistance was measured by applying a 2-mV pulse. […] Typical protocol utilized a basolateral to apical membrane Cl^− concentration gradient. To set up this gradient, normal ringers was used on the basolateral membrane and was permeabilized with nystatin (360 μg/ml), whereas apical NaCl was replaced by equimolar sodium gluconate (titrated to pH 7.4 with NaOH) to give a large Cl concentration gradient across the epithelium. All experiments were performed 30 min after nystatin permeabilization. The solutions were maintained at 27° C. and bubbled with air. The electrode offset potential and fluid resistance were corrected using a cell-free insert. Under these conditions, the current reflects the flow of Cl^− through ΔF508-CFTR expressed in the apical membrane. The ISC was digitally acquired using an MP100A-CE interface and AcqKnowledge software (version 3.2.6; BIOPAC Systems, Santa Barbara, Calif.). Forskolin (10 μM) and all test compounds were added to both sides of the cell culture inserts. […]

T1 sequence (P13569 with tags, fused parts or gaps DEL508-508): as above

| Emax [1] [%] | Structure (SMILES) | further results |
| --- | --- | --- |
| 35 to 75 | Cc1ccc(O)c(-c2cc(-c3ccncc3)n[nH]2)c1 [IA-93] |  |
| 35 to 75 | COc1ccccc1-c1cc(-c2cc(C)ccc2O)[nH]n1 [IA-94] |  |
| 35 to 75 | Cc1ccc(O)c(-c2cc(-c3nc(C)c(-c4ccc5c(c4)OCC5)s3)n[nH]2)c1 [IA-95] |  |
| 35 to 75 | O=[N+]([O-])c1ccccc1-c1cc(-c2ccccc2O)n[nH]1 [IA-97] |  |
| 35 to 75 | Oc1ccccc1-c1cc(-c2ccc(C(F)(F)F)cc2F)n[nH]1 [IA-98] |  |
| 35 to 75 | COc1ccc(-c2cc(-c3cc(C)ccc3O)n[nH]2)c(F)c1 [IA-99] |  |
| 35 to 75 | COc1ccc(-c2cc(-c3ccc(C)cc3O)n[nH]2)cc1 [IA-100] |  |
| 35 to 75 | CCOc1ncccc1-c1cc(-c2ccccc2O)[nH]n1 [IA-101] |  |
| 35 to 75 | Cc1ccc(O)c(-c2cc(-c3ccc([N+](=O)[O-])cc3)n[nH]2)c1 [IA-102] |  |
| < 35 | Cc1ccc(O)c(-c2cc(-c3ccc(C(F)(F)F)cc3)[nH]n2)c1 [IA-103] |  |
| 35 to 75 | Cc1ccc(O)c(-c2cc(-c3ccc(F)cc3)[nH]n2)c1 [IA-104] |  |
| 35 to 75 | Cc1ccc(O)c(-c2cc(-c3c(Cl)cccc3Cl)n[nH]2)c1 [IA-105] |  |
| 35 to 75 | Cc1ccc(-c2cc(-c3cccc(F)c3)[nH]n2)c(O)c1 [IA-106] |  |
| 35 to 75 | Cc1ccc(O)c(-c2cc(-c3cc(C)on3)n[nH]2)c1 [IA-107] |  |
|  | Oc1ccccc1-c1cc(-c2ccccc2Cl)[nH]n1 [IA-113] | % Efficacy (relative modulating efficacy in comparison with genistein) ([1]; normalized to peak genistein response): + (an efficacy range of <35% when compared to genistein) |
| 35 to 75 | O=[N+]([O-])c1ccc(-c2cc(-c3cc(C(F)(F)F)ccc3O)[nH]n2)cc1 [IA-114] |  |
| < 35 | Cc1ccc(O)c(-c2cc(-c3cc(Cl)ccc3F)n[nH]2)c1 [IA-115] |  |
|  | O=c1c(-c2ccc(O)cc2)coc2cc(O)cc(O)c12 [genistein, reference compound] | ISC potentiated to ([2]; genistein 50 μM added after forskolin 10 μM, n=8): 21±1.5 μA/cm^2; stimulation of ISC when applied prior to forskolin addition ([2]; no forskolin, data not shown): did not stimulate; effect on forskolin-induced membrane depolarization [1]: augmented; membrane potential response in the absence of forskolin addition ([1]; data not shown): no response; potentiation of the forskolin-induced response ([1]; optical assay, n=35): 72.8±7.2% |
